Data reported in publication PMC4784888, “Activity Based High-Throughput Screening for Novel O-GlcNAc Transferase Substrates Using a Dynamic Peptide Microarray” (PLoS ONE, 2016).

Columns and labels:
Format in all cases: biochemical, human
m-OGT [1] = assay: O-GlcNAcylation on kinase substrate peptide microarray, m-OGT; settings: bacterial lysate containing m-OGT (7 μg/μL), 1 mM UDP-GlcNAc, 50 mM Tris-HCl pH 7.5, 30°C, FITC antibody fluorescence, corrected for signal without UDP-GlcNAc
Protocol: (§1) Plasmids encoding s-OGT, m-OGT, and nc-OGT are generous gifts from John A. Hanover (National Institute of Health, USA). OGT overexpression was carried out as previously described. All the plasmids were transformed into E.coli BL21 (DE3) competent cells to produce a cell lysate containing OGT for use or for further purification. Briefly, inoculated a single colony into 50 ml of LB broth media containing 50 μg/ml ampicillin and cells were grown overnight at 37°C with vigorous shaking. 50 mL of the start culture was added into 1L LB broth media containing 50 μg/mL ampicillin and it was incubated with shaking at 200 rpm at 37°C until A600 reached 0.4–0.6. After the culture was cooled to room temperature, 0.5 mM IPTG was added into the culture to induce protein expression. After 16 hours, the cells were collected by centrifugation for 10 min at 4000 RPM at 4°C. The pellets were lysed in lysis buffer containing 20 mM Tris-HCl, pH 7.5, 1 mg/mL lysome, 0.1% triton x-100 and complete mini EDTA-free protease inhibitor cocktail on ice for 10 min and the lysate was sonicated until the DNA was completely sheared. After centrifugation for 10 min at 12000 rpm at 4°C, the supernatant was carefully transferred into a clean tube and was ready for the array assay or for further purification. Protein expression was determined by coomassie blue staining and western blotting using an anti-OGT antibody.
(§2) Peptide O-GlcNAcylation was assessed using PamChip 4 microarray chips with a PamStation 12 instrument (Pamgene international, The Netherlands). The OGT enzyme reaction was prepared essentially as described[26] with minor modifications. Briefly, before addition of the enzyme reaction, the microarray was blocked with blocking buffer (1% BSA in TBS). After 30 cycles (2 cycles/min) blocking, the blocking buffer was aspirated and the microarray was incubated with 40 μL of the enzyme reaction containing OGT (lysate or purified), OGT reaction buffer (50 mM Tris—HCl, pH 7.5;1 mM DTT;12.5 mM MgCl2), a 1:1 pre-incubated mixture of anti-O-GlcNAc and FITC conjugated secondary antibody, and the sugar donor UDP-GlcNAc or water as a control for 480 cycles (2 cycles/min) at 30°C. The microarray was run in parallel by pumping the reaction up and down through the porous membrane at every cycle and a tiff image was obtained at every 20 cycles by a CCD camera inside the PamStation. O-GlcNAcylation of each peptide was detected by a fluorescent signal which was produced by an FITC conjugated antibody bound to the O-GlcNAc moiety on the peptide.
(§3) Image analysis was performed using BioNavigator 6 software (Pamgene international, The Netherlands). Briefly, each image was quantified by automated array grid finding and subsequent quantification of signal and local background for each individual spot. In this work, the signal median-minus-background value was used as the quantitative parameter for the O-GlcNAcylation of the peptide.
(§4) Dynamic peptide microarray (PamChip) technology has been successfully and widely used for kinase activities profiling in the last decade. In the present work, we describe, for the first time, the utility of this peptide microarray format for the identification of human OGT activity. Due to the fact that O-GlcNAcylation and phosphorylation may occur at the same or proximal amino acids on the same protein [9], a peptide microarray of 144 peptides derived from different kinase substrates (S1 Appendix) was selected for an initial test. […] O-GlcNAcylation of peptides in each individual spot was detected by a fluorescent signal produced by the FITC labelled antibody recognizing the O-GlcNAcylated amino acids of converted peptides. Kinetic activity was measured through scanning the signal at regular intervals.
(§5) Fig 2 Identification of human OGT substrates from a kinase substrate and nuclear hormone receptor interaction peptide microarray. […]

s-OGT [2] = assay: O-GlcNAcylation on kinase substrate peptide microarray, s-OGT; settings: bacterial lysate containing s-OGT (7 μg/μL), 1 mM UDP-GlcNAc, 50 mM Tris-HCl pH 7.5, 30°C, FITC antibody fluorescence, corrected for signal without UDP-GlcNAc
Protocol: as §1, §2, §3, §4, §5

nc-OGT [3] = assay: O-GlcNAcylation on kinase substrate peptide microarray, nc-OGT; settings: bacterial lysate containing nc-OGT (7 μg/μL), 1 mM UDP-GlcNAc, 50 mM Tris-HCl pH 7.5, 30°C, FITC antibody fluorescence, corrected for signal without UDP-GlcNAc
Protocol: as §1, §2, §3, §4, §5

m-OGT [4] = assay: O-GlcNAcylation on nuclear hormone receptor interaction peptide microarray, m-OGT; settings: bacterial lysate containing m-OGT (7 μg/μL), 1 mM UDP-GlcNAc, 50 mM Tris-HCl pH 7.5, 30°C, FITC antibody fluorescence, corrected for signal without UDP-GlcNAc
Protocol: as §1, §2, §3, §4, §5

nc-OGT [5] = assay: O-GlcNAcylation on nuclear hormone receptor interaction peptide microarray, nc-OGT; settings: bacterial lysate containing nc-OGT (7 μg/μL), 1 mM UDP-GlcNAc, 50 mM Tris-HCl pH 7.5, 30°C, FITC antibody fluorescence, corrected for signal without UDP-GlcNAc
Protocol: as §1, §2, §3, §4, §5

s-OGT [6] = assay: O-GlcNAcylation on nuclear hormone receptor interaction peptide microarray, s-OGT; settings: bacterial lysate containing s-OGT (7 μg/μL), 1 mM UDP-GlcNAc, 50 mM Tris-HCl pH 7.5, 30°C, FITC antibody fluorescence, corrected for signal without UDP-GlcNAc
Protocol: as §1, §2, §3, §4, §5

[7] = system: OGT (s-OGT, m-OGT, nc-OGT); assay: O-GlcNAcylation on nuclear hormone receptor interaction peptide microarray, three isoforms taken together; settings: for O-GlcNAcylation by three isoforms: nuclear hormone receptor interaction microarray, bacterial lysates s-, m-, nc-OGT, 1 mM UDP-GlcNAc; for identification in microarray assay: nuclear receptor interaction peptide microarray
Protocol: as §1, §2, §3
as §4, with “activity.” for “activity. Due to the fact that O-GlcNAcylation and phosphorylation may occur at the same or proximal amino acids on the same protein [9], a peptide microarray of 144 peptides derived from different kinase substrates (S1 Appendix) was selected for an initial test.”, “intervals. […]” for “intervals.”

OGT isoforms activity, m (m-OGT [1]) | OGT isoforms activity, nc (nc-OGT [5]) | OGT isoforms activity, s (s-OGT [6]) | identification in microarray assay [7] | Sequence | OGT isoforms activity, s (s-OGT [2]) | OGT isoforms activity, nc (nc-OGT [3]) | OGT isoforms activity, m (m-OGT [4]) | O-GlcNAcylation by three isoforms [7]
N (otherwise negative (N)) | – | – | – | DNTPHTPTPFKNA [MYBB_513_525, kinase substrate microarray peptide …] | P (Signal greater than 5% of the highest signal was defined as positive (P)) | N (otherwise negative (N)) | – | –
– | N (otherwise negative) | N (otherwise negative) | – | DSVRKGKQDSTLLASLLQSFSSR [NRIP1_121_143_P124R] | – | – | P (Signal greater than 5% of the highest signal was defined as positive) | –
N (otherwise negative (N)) | – | – | – | ERSKTVTSFYNQS [BCKD_45_57, kinase substrate microarray peptide …] | N (otherwise negative (N)) | P (Signal greater than 5% of the highest signal was defined as positive (P)) | – | –
– | N (otherwise negative) | N (otherwise negative) | – | GSDVHQDSIVLTYLEGLLMHQAA [NRIP1_8_30] | – | – | P (Signal greater than 5% of the highest signal was defined as positive) | –
– | – | – | not identified in our microarray assay | GTGGLSAVSSGPRLRLLLLESVS [PELP1_20_42] | – | – | – | –
N (otherwise negative (N)) | – | – | – | KWTKRTLSETSSS [KCNB1_489_501, kinase substrate microarray peptide …] | N (otherwise negative (N)) | P (Signal greater than 5% of the highest signal was defined as positive (P)) | – | –
– | N (otherwise negative) | N (otherwise negative) | – | QFPLPKNLLAKVIQIATSSSTA [DHX30_241_262] | – | – | P (Signal greater than 5% of the highest signal was defined as positive) | –
N (otherwise negative (N)) | – | – | – | QVEFRRLSISAES [KPB1_1011_1023, kinase substrate microarray peptide …] | P (Signal greater than 5% of the highest signal was defined as positive (P)) | N (otherwise negative (N)) | – | –
– | – | – | not identified in our microarray assay | SDGDSKYSQTSHKLVQLLTTTAEQ [NCOA1_620_643] | – | – | – | –
– | N (otherwise negative) | N (otherwise negative) | – | SPSQGAASRPAILYALLSSSLKA [NR0B2_9_31_C9S/C11S] | – | – | P (Signal greater than 5% of the highest signal was defined as positive) | –
– | N (otherwise negative) | N (otherwise negative) | – | SQSTFNNPRPGQLGRLLPNQNLP [NCOA2_866_888] | – | – | P (Signal greater than 5% of the highest signal was defined as positive) | –
– | N (otherwise negative) | N (otherwise negative) | – | TTSPTAATTQNPVLSKLLMADQD [LCOR_40_62] | – | – | P (Signal greater than 5% of the highest signal was defined as positive) | –

Sequence | OGT isoforms activity, m (m-OGT [1]) | OGT isoforms activity, nc (nc-OGT [5]) | OGT isoforms activity, s (s-OGT [6]) | identification in microarray assay [7] | OGT isoforms activity, s (s-OGT [2]) | OGT isoforms activity, nc (nc-OGT [3]) | OGT isoforms activity, m (m-OGT [4]) | O-GlcNAcylation by three isoforms [7]
EGLRSRSTRMSTVS [KIF2C_105_118_S106G, kinase substrate microarray peptide …] | P (Signal greater than 5% of the highest signal was defined as positive (P)) | – | – | – | N (otherwise negative (N)) | N (otherwise negative (N)) | – | –
GLGRSITSPTTLY [RBL-2_655_667, kinase substrate microarray peptide …] | P (Signal greater than 5% of the highest signal was defined as positive (P)) | – | – | – | P (Signal greater than 5% of the highest signal was defined as positive (P)) | P (Signal greater than 5% of the highest signal was defined as positive (P)) | – | –
GQRNISTLSTIQKLPRLLVASSS [WIPI1_313_335_C318S] | – | P (Signal greater than 5% of the highest signal was defined as positive) | P (Signal greater than 5% of the highest signal was defined as positive) | – | – | – | P (Signal greater than 5% of the highest signal was defined as positive) | O-GlcNAcylation by three isoforms was observed
HGEDFSKVSQNPILTSLLQITGNG [MED1_591_614] | – | P (Signal greater than 5% of the highest signal was defined as positive) | N (otherwise negative) | – | – | – | N (otherwise negative) | –
HGSQNRPLLRNSLDDLLGPPSNA [NCOA3_MOUSE_1029_1051] | – | P (Signal greater than 5% of the highest signal was defined as positive) | N (otherwise negative) | – | – | – | N (otherwise negative) | –
LVSPAMREAPTSLSQLLDNSGAP [NCOA6_1479_1501] | – | P (Signal greater than 5% of the highest signal was defined as positive) | P (Signal greater than 5% of the highest signal was defined as positive) | – | – | – | P (Signal greater than 5% of the highest signal was defined as positive) | O-GlcNAcylation by three isoforms was observed
PATSPKPSVASSQLALLLSSEAH [NRIP1_253_275_C263S] | – | P (Signal greater than 5% of the highest signal was defined as positive) | N (otherwise negative) | – | – | – | P (Signal greater than 5% of the highest signal was defined as positive) | –
SDTLPEVSAIPISLDGLLFPRPS [PRGR_42_64_C64S] | – | N (otherwise negative) | P (Signal greater than 5% of the highest signal was defined as positive) | – | – | – | P (Signal greater than 5% of the highest signal was defined as positive) | –
TVAASPAASGAPTLSRLLEAGPT [BRD8_254_276] | – | P (Signal greater than 5% of the highest signal was defined as positive) | P (Signal greater than 5% of the highest signal was defined as positive) | – | – | – | P (Signal greater than 5% of the highest signal was defined as positive) | O-GlcNAcylation by three isoforms was observed
